Activity calls are given as the source filed them. No cut-off for these calls is given here.
What was measured:
Format in all cases: functional, cell-based
[1] = Cytotoxicity against mouse EN2 cells after 24 hrs by MTT assay; conditions: EN2, 24 h
EN2 [2] = assay: Cytotoxicity against mouse EN2 cells after 5 mins by MTT assay
EN2 [3] = assay: Cytotoxicity against mouse EN2 cells after 15 mins by MTT assay
EN2 [4] = assay: Cytotoxicity against mouse EN2 cells after 10 mins by MTT assay
[5] = Cell cycle arrest in mouse EN2 cells assessed as accumulation at G1 phase after 24 hrs by flow cytometry; conditions: EN2, 24 h
[6] = Cell cycle arrest in mouse EN2 cells assessed as accumulation at G1 phase after 24 hrs by flow cytometry relative to control
[7] = Cytotoxicity against mouse EN2 cells after 24 hrs by clonogenic assay; conditions: EN2, 24 h
[8] = Cytotoxicity against mouse EN2 cells after 72 hrs by MTT assay; conditions: EN2, 72 h
[9] = Cytotoxicity against mouse EN2 cells after 24 hrs by cell-count assay; conditions: EN2, 24 h
[10] = Cell cycle arrest in mouse EN2 cells assessed as accumulation at S phase after 24 hrs by flow cytometry relative to control
[11] = Cell cycle arrest in mouse EN2 cells assessed as accumulation at S phase after 48 hrs by flow cytometry relative to control
[12] = Cytotoxicity against mouse EN2 cells at 50 uM after 24 hrs by clonogenic assay; conditions: EN2, 24 h
[13] = Cell cycle arrest in mouse EN2 cells assessed as accumulation at G1 phase at 0.4 uM after 12 hrs by flow cytometry relative to control
[14] = Cytotoxicity against mouse EN2 cells after 2 hrs of incubation measured after 6 days by clonogenic assay
[15] = Cell cycle arrest in mouse EN2 cells assessed as accumulation at G1 phase at 0.4 uM after 24 to 48 hrs by flow cytometry relative to control
[16] = Cytotoxicity against mouse EN2 cells after 2 hrs of incubation measured after 24 hrs by cell-count assay
[17] = Cell cycle arrest in mouse EN2 cells assessed as accumulation at G1 phase after 2 hrs of incubation measured after 24 hrs relative to control
[18] = Cytotoxicity against mouse EN2 cells after 2 hrs of incubation measured after 2 days by MTT assay

| Compound | IC50 [1] [µM] | IC50 [5] [µM] | Activity [6] | IC50 [8] [µM] | IC50 [9] [µM] | further results |
| --- | --- | --- | --- | --- | --- | --- |
| C[C@H]1[C@@H](O[C@H]2O[C@@H]3O[C@]4(C)CC[C@H]5[C@H](C)CC[C@@H]([C@H]2C)[C@@]35OO4)O[C@@H]2O[C@]3(C)CC[C@H]4[C@H](C)CC[C@@H]1[C@@]24OO3 | 7.2 | 1 | Active | 2 | 8.9 | Activity (EN2 [2]): Active; Activity (EN2 [3]): Active; Activity (EN2 [4]): Active; IC50 [7]: > 50 µM |
| C[C@@H]1CC[C@H]2[C@@H](C)C(=O)O[C@@H]3O[C@@]4(C)CC[C@@H]1[C@]32OO4 [ARTEMISININ] | 11.5 | 1 | inactive | 0.98 | 30 | Activity [10]: Dose-dependent effect; IC50 [7]: > 50 µM; Activity [11]: inactive |
| C[C@@H]1CC[C@@H]2[C@]34OO[C@](C)(CC[C@@H]13)O[C@H]4OC(=O)[C@@]21CO1 | – | – | – | 12.7 | – | – |
| C[C@H]1[C@H](O[C@H]2O[C@@H]3O[C@]4(C)CC[C@H]5[C@H](C)CC[C@@H]([C@H]2C)[C@@]35O4)O[C@@H]2O[C@]3(C)CC[C@H]4[C@H](C)CC[C@@H]1[C@@]24O3 [listing 1 of 2 here] | – | – | – | 8.9 | – | – |
| C[C@@H]1CC[C@H]2[C@@H](C)C(=O)O[C@@H]3O[C@@]4(C)CC[C@@H]1[C@]32O4 [DEOXYARTEMISININ] | – | – | – | 111 | – | – |
| C[C@@H]1CC[C@@H]2[C@]34OO[C@](C)(CC[C@@H]13)O[C@H]4OC(=O)[C@]21CO1 | – | – | – | > 100 | – | – |
| C[C@H]1[C@H](O[C@H]2O[C@@H]3O[C@]4(C)CC[C@H]5[C@H](C)CC[C@@H]([C@H]2C)[C@@]35O4)O[C@@H]2O[C@]3(C)CC[C@H]4[C@H](C)CC[C@@H]1[C@@]24O3 [listing 2 of 2 here] | – | – | – | 99.8 | – | – |
| C[C@H]1[C@H](O[C@H]2O[C@@H]3O[C@]4(C)CC[C@H]5[C@H](C)CC[C@@H]([C@H]2C)[C@@]35OO4)O[C@@H]2O[C@]3(C)CC[C@H]4[C@H](C)CC[C@@H]1[C@@]24OO3 | 0.35 | 0.05 | Active | 0.11 | 0.54 | IC50 [12]: 1 µM; Activity [13]: Active; IC50 [14]: 55.6 µM; Activity [15]: inactive; Activity (EN2 [2]): Active; Activity (EN2 [3]): Active; Activity (EN2 [4]): Active; IC50 [16]: 9.3 µM; Activity [17]: Dose-dependent effect; IC50 [17]: 1 µM; IC50 [18]: 3.6 µM |

Source: ChEMBL document CHEMBL1145693, “Stereochemistry-dependent cytotoxicity of some artemisinin derivatives” (J Nat Prod, 1997)
